Laboratory results as given in patent US7880010B2, “Crystalline forms of a dimethylphenyl compound” (Theravance, Inc., priority 2006, dated 2011).

Key:
Experiment in all cases: Radioligand binding assay for muscarinic receptors ([3H]-NMS displacement)
hM2 muscarinic receptor = target: T1, hM2 muscarinic receptor (Homo sapiens, UniProt P08172); conditions: M2 muscarinic receptor subtype, CHO cell membranes, [3H]-NMS 1 nM
T1 construct: expressed in transfected cells; host or cells: CHO / CHO-K1
T1 sequence (P08172 1-466): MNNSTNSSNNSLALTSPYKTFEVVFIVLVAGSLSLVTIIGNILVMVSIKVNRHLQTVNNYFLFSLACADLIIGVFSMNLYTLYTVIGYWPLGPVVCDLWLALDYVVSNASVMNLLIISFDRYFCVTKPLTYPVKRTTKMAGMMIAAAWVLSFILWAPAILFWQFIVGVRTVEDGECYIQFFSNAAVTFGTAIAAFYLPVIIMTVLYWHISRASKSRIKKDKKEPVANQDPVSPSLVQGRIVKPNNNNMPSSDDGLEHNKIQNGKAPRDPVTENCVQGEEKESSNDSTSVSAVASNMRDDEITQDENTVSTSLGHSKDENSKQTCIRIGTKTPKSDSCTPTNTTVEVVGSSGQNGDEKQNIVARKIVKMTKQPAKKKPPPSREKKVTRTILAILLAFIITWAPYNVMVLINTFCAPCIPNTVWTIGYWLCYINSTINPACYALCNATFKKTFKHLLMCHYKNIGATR
Experimental: (§1) CHO cell lines stably expressing cloned human hM1, hM2, hM3 and hM4 muscarinic receptor subtypes, respectively, were grown to near confluency in Hams F-12 media supplemented with 10% FBS and 250 μg/mL Geneticin. The cells were grown in a 5% CO2, 37° C. incubator and lifted with 2 mM EDTA in dPBS. Cells were collected by 5 minute centrifugation at 650×g, and cell pellets were either stored frozen at −80° C. or membranes were prepared immediately for use. For membrane preparation, cell pellets were resuspended in lysis buffer and homogenized with a Polytron PT-2100 tissue disrupter (Kinematica AG; 20 seconds×2 bursts). Crude membranes were centrifuged at 40,000×g for 15 minutes at 4° C. The membrane pellet was then resuspended with re-suspension buffer and homogenized again with the Polytron tissue disrupter. The protein concentration of the membrane suspension was determined by the method described in Lowry et al., 1951, Journal of Biochemistry, 193, 265. All membranes were stored frozen in aliquots at −80° C. or used immediately. Aliquots of prepared hM5 receptor membranes were purchased directly from PerkinElmer, Inc. (Wellesley, Mass.) and stored at −80° C. until use.
(§2) Radioligand binding assays for cloned muscarinic receptors were performed in 96-well microtiter plates in a total assay volume of 100 μL. CHO cell membranes stably expressing either the hM1, hM2, hM3, hM4 or hM5 muscarinic subtype were diluted in assay buffer to the following specific target protein concentrations (μg/well): 10 μg for hM1, 10-15 μg for hM2, 10-20 μg for hM3, 10-20 μg for hM4, and 10-12 μg for hM5 to get similar signals (cpm). The membranes were briefly homogenized using a Polytron tissue disrupter (10 seconds) prior to assay plate addition. Saturation binding studies for determining KD values of the radioligand were performed using L-[N-methyl-^3H]scopolamine methyl chloride ([^3H]-NMS) (TRK666, 84.0 Ci/mmol, Amersham Pharmacia Biotech, Buckinghamshire, England) at concentrations ranging from 0.001 nM to 20 nM. Displacement assays for determination of Ki values of test compounds were performed with [^3H]-NMS at 1 nM and eleven different test compound concentrations. The test compounds were initially dissolved to a concentration of 400 μM in dilution buffer and then serially diluted 5× with dilution buffer to final concentrations ranging from 10 pM to 100 μM. The addition order and volumes to the assay plates were as follows: 25 μL radioligand, 25 μL diluted test compound, and 50 μL membranes. Assay plates were incubated for 60 minutes at 37° C. Binding reactions were terminated by rapid filtration over GF/B glass fiber filter plates (PerkinElmer, Inc.) pre-treated in 1% BSA. Filter plates were rinsed three times with wash buffer (10 mM HEPES) to remove unbound radioactivity. The plates were then air-dried and 50 μL Microscint-20 liquid scintillation fluid (PerkinElmer, Inc.) were added to each well. The plates were then counted in a PerkinElmer Topcount liquid scintillation counter (PerkinElmer, Inc.). Binding data were analyzed by nonlinear regression analysis with the GraphPad Prism Software package (GraphPad Software, Inc., San Diego, Calif.) using the one-site competition model. Ki values for test compounds were calculated from observed IC50 values and the KD value of the radioligand using the Cheng-Prusoff equation (Cheng Y; Prusoff W H. (1973) Biochemical Pharmacology, 22(23):3099-108). […]

hM1 muscarinic receptor = target: T2, hM1 muscarinic receptor (Homo sapiens, UniProt P11229); conditions: M1 muscarinic receptor subtype, CHO cell membranes, [3H]-NMS 1 nM
T2 construct: expressed in transfected cells; host or cells: CHO
T2 sequence (P11229 1-460): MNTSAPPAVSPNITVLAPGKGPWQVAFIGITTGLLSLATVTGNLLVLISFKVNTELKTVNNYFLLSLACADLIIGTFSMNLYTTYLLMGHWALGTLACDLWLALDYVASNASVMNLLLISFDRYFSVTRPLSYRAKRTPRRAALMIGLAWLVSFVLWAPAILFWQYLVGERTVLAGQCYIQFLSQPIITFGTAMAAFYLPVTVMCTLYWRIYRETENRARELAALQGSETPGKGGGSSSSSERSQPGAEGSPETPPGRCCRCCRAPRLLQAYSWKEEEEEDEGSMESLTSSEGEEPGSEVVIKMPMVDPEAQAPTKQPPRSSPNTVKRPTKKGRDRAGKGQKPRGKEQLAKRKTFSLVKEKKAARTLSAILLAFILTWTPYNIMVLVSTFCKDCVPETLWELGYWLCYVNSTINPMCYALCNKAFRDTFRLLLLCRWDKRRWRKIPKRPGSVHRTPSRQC
Experimental: as §1, §2

hM4 muscarinic receptor = target: T3, hM4 muscarinic receptor (Homo sapiens, UniProt P08173); conditions: M4 muscarinic receptor subtype, CHO cell membranes, [3H]-NMS 1 nM
T3 construct: expressed in transfected cells; host or cells: CHO
T3 sequence (P08173 1-479): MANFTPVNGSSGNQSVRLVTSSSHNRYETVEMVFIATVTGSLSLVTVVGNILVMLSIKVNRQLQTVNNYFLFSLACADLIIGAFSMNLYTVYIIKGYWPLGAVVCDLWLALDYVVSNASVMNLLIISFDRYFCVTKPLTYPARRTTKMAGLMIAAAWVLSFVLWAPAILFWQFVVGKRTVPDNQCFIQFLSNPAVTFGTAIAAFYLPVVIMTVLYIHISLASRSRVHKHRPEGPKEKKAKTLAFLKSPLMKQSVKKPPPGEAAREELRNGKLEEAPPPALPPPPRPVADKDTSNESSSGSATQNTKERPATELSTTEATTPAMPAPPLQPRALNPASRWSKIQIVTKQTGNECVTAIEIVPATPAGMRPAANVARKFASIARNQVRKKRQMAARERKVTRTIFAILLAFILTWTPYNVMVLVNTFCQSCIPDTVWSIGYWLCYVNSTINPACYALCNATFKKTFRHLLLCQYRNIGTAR
Experimental: as §1, §2

Ki (hM2 muscarinic receptor): < 10 nM | Ki (hM1 muscarinic receptor): < 10 nM | Ki (hM4 muscarinic receptor): < 10 nM
SMILES: Cc1cc(NC(=O)CCN2CCC(OC(=O)Nc3ccccc3-c3ccccc3)CC2)c(C)cc1CNC[C@H](O)c1ccc(O)c(NC=O)c1 [compound of formula I, biphenyl-2-ylcarbamic acid 1-[2-(4-{[(R)-2-(3-formylamino-4-hydroxyphenyl)-2-hydroxyethylamino]methyl}-2,5-dimethylphenylcarbamoyl)ethyl]-piperidin-4-yl ester]
